# Experimental data published in patent US20220193202A1, “PARATHYROID HORMONE DERIVATIVE IN DIMERIC FORM OF PARATHYROID HORMONE FRAGMENT AND PHARMACEUTICAL COMPOSITION FOR PREVENTION OR TREATMENT OF BONE DISEASES COMPRISING SAME” (GACHON UNIVERSITY OF INDUSTRY-ACADEMIC COOPERATION …, priority 2019, published 2022).
# How the values were obtained:
# Format in all cases: in vivo, C57BL6 male mice
# [1] = tested on: trabecular bones of the femurs; test: micro-CT of femur of opposite limb (trabecular bone formation); details: 100 μg/kg subcutaneously daily Day 1 to Day 13, Day 14, compared with control, PTH(1-34) and monomeric [Cys25]PTH(1-34) groups
# Experimental: (§1) Five 10-week-old C57BL6 male mice were prepared for each group, and fracture model surgery was performed in the following manner (see FIG. 3). In particular, 9 days before (-D9) and 6 days before (-D6) prior to fracture model surgery (DO) in mice of each group, infrared fluorescent dyes (IR Dyes, Infra-Red dyes) were administered through a tail vein of the mice. Then, the mice were general anesthetized using isoflurane containing oxygen (O2) for fracture model surgery, and a left hind limb was shaved and sterilized for surgery. An incision of about 15 mm was made in the left hind limb in the longitudinal direction, and the tibia was exposed by obtuse-angled resection of the muscle. Then, transverse osteotomy was performed using disc-shaped dental steel bars at the midpoint of the tibia. After repositioning the fracture site, the entire length of a bone marrow lumen was made internally stabilized. After washing it with saline, the skin was sutured with nylon sutures. In particular, the fracture animal models prepared in Example 2 was divided into a control group, PTH(1-34), monomeric [[…]]PTH(1-34), and dimeric [[…]]PTH(1-34) administration groups (n=5 animals per group). […] In addition, the femurs of an opposite limb of the animal models were collected and analyzed by micro-CT equipment to evaluate the degree of bone formation in the trabecular bones of the femurs.
# fracture animal model [2] = test: 3D-micro CT of tibia including fracture site (callus formation); details: 100 μg/kg subcutaneously daily Day 1 to Day 13; tibia collected Day 14
# Experimental: as §1, with “The collected shin bones” for “In addition, the femurs of an opposite limb of the animal models”, “imaged” for “collected”, “using 3D-micro CT (Microfocus X-ray CT system SMX-90CT, Shimadzu, Japan) equipment.” for “by micro-CT equipment to evaluate the degree of bone formation in the trabecular bones of the femurs.”
# fracture animal model [3] = test: IVIS imaging of fracture site in fracture animal model; details: 100 μg/kg subcutaneously daily Day 1 to Day 13 after fracture surgery; imaged Day 4, 7, 11, 14
# Experimental: Five 10-week-old C57BL6 male mice were prepared for each group, and fracture model surgery was performed in the following manner (see FIG. 3). In particular, 9 days before (-D9) and 6 days before (-D6) prior to fracture model surgery (DO) in mice of each group, infrared fluorescent dyes (IR Dyes, Infra-Red dyes) were administered through a tail vein of the mice. Then, the mice were general anesthetized using isoflurane containing oxygen (O2) for fracture model surgery, and a left hind limb was shaved and sterilized for surgery. An incision of about 15 mm was made in the left hind limb in the longitudinal direction, and the tibia was exposed by obtuse-angled resection of the muscle. Then, transverse osteotomy was performed using disc-shaped dental steel bars at the midpoint of the tibia. After repositioning the fracture site, the entire length of a bone marrow lumen was made internally stabilized. […] On Day 4, Day 7, Day 11, and Day 14 after the surgery, fracture sites of mice per each group were photographed and analyzed using IVIS Lumina XR (Caliper Life Sciences, USA) equipment and Living Image software. The results as shown in FIG. 4 confirmed that when the dimeric [[…]]PTH(1-34) was administered, an intensity of fluorescence was increased at the site where the fracture was healing. […] Therefore, intensifying of the fluorescence means that bone formation increased.
substance,measurement,setting,value
"dimeric [Cys25]PTH(1-34): Dimeric form of parathyroid hormone fragment PTH(1-34) with Arg25 substituted by Cys (SEQ ID NO: 1), disulfide bond between cysteines","bone formation in the trabecular bones of the femurs (micro-CT, FIG. 8)",[1],greatest increase
same,"callus formation (3D-micro CT, FIG. 6)",fracture animal model [2],promoted
same,callus volume (FIG. 7),fracture animal model [2],notably increased
same,"bone formation, average of photon flux (FIG. 5)",fracture animal model [3],significantly increased
same,"intensity of fluorescence at the site where the fracture was healing (IVIS imaging, FIG. 4)",fracture animal model [3],increased
